Laboratory results as given in patent US20160011220A1, “Systems and Methods to Quantify Analytes in Keratinized Samples” (PURDUE PHARMA L.P., priority 2012, published 2016).

How the values were obtained:
[1] = Stability of hair levels among individuals on stable doses of opioids, visit 1 vs visit 2 (excluding PRN dose); assay type: in vivo, human; conditions: hair level at visit 1 vs hair level at visit 2
Description: The study includes 2 study visits approximately 60 days apart. The second visit allowable range is between 45 and 75 days after the first visit. Patients submit hair and urine samples at both study visits
The enrolled subjects are current, past or new users of prescribed opioid analgesic regimens in either (i) the past 30 days, (ii) the past 31 to 120 days or were not previously prescribed an opioid regimen. All opioid analgesic regimens are self-reported.
E. Assessment of the Stability of Hair Levels Among Individuals on Stable Doses of Opioids (Excluding PRN Dose)
Also shown in Table 1B and the graphs is data from a sub-population of tested subjects, which excluded patients where the start date of the regimen was within the 90 day window of the enrollment date.

[2] = Relationship between prescribed opioid dose and hair levels (excluding PRN dose); assay type: in vivo, human
[3] = excluding patients whose prescription started less than 90 days before enrollment (n = 361)

Row | Structure (SMILES) | R (correlation coefficient) ([1]; all interim sample (n = 411)) | R-Squared ([1]; all interim sample (n = 411)) | R (correlation coefficient) [1, 3] | R-Squared [1, 3] | total variation in the hair levels explained by the linear relationship between total daily dose and hair levels (coefficient of determination) [2]
1 | COc1ccc2c3c1O[C@H]1C(=O)CC[C@H]4[C@@H](C2)N(C)CC[C@]314 [Hydrocodone, hydrocodone] | 0.880 | 0.775 | 0.883 | 0.781 | 
2 | CN1CC[C@]23c4c5ccc(O)c4O[C@H]2[C@@H](O)C=C[C@H]3[C@H]1C5 [Morphine, morphine] | 0.789 | 0.623 | 0.974 | 0.949 | 
3 | COc1ccc2c3c1O[C@H]1C(=O)CC[C@@]4(O)[C@@H](C2)N(C)CC[C@]314 [Oxycodone, oxycodone] | 0.959 | 0.920 | 0.960 | 0.922 | approximately 55%
